In publication PMC8597757, “Pharmacokinetic and Safety Profile of the Novel HIV Nonnucleoside Reverse Transcriptase Inhibitor MK-8507 in Adults without HIV” (Antimicrobial Agents and Chemotherapy, 2021):
Entries after “also recorded” stand apart in the source; their conditions may differ. Like-named read-outs stand apart in the source and are kept apart here.

Key:
HIV-1 = test: PK target of Ctrough >=6 x IC50 (in vitro potency); details: Human immunodeficiency virus 1; Ctrough target expected to achieve antiviral efficacy; meta-analysis ref 20; read-out: 6 × IC50 threshold (PK target for C168hr)
Experimental: The plasma PK profile of MK-8507 is supportive of QW administration. Following oral administration, MK-8507 is readily absorbed, with a Tmax of ∼2 to 7 h followed by a biphasic decline in plasma concentration. […] Concentration at trough is the PK parameter generally associated with antiviral efficacy of HIV treatment ([20][–][23]). Based on a meta-analysis of Ctrough normalized by in vitro potency and viral load data from other NNRTIs ([20]), a PK target of Ctrough ≥6 × 50% inhibitory concentration (IC50) is a threshold expected to achieve antiviral efficacy as part of combination therapy. […] These PK results support further development of MK-8507 as a QW oral agent for treatment of HIV administered as part of a complete treatment regimen together with islatravir.

[1] = Single-dose plasma pharmacokinetics of MK-8507 (suspension, study 1; tablet, study 2); format: in vivo; details: human, fasted; for AUC(0-inf): n=6, read-out: AUC0-∞ (geometric mean [95% CI]); for AUC(0-t): n=6, read-out: AUC0–168 (geometric mean [95% CI]); for half-life: n=6, read-out: Apparent terminal t½ (geometric mean [%GVC]) (converted); for concentration at 168 h: n=6, read-out: C168hr (geometric mean [95% CI]); for Cmax: n=6, read-out: Cmax (geometric mean [95% CI])
[2] = Multiple-dose (once weekly for 3 weeks) plasma pharmacokinetics of MK-8507 tablet; format: in vivo, human; details: for AUC(0-t) / concentration at 168 h / Cmax / Tmax / half-life: human, plasma, oral; for AUC(0-t): read-out: AUC0–168 (geometric mean [95% CI]); for concentration at 168 h: read-out: C168hr (geometric mean [95% CI]); for Cmax: read-out: Cmax (geometric mean [95% CI])
Experimental: MK-8507 in plasma was extracted by protein precipitation and analyzed by reversed-phase chromatographic separation coupled with tandem mass spectrometric detection by Merck & Co., Inc. (West Point, PA, USA). The liquid chromatography-tandem mass spectrometric (LC-MS/MS) system consisted of a Waters Acquity ultraperformance liquid chromatography system (Waters Corporation, Milford, MA, USA) employing a turbo ionspray interface in the negative ion mode. The lower limit of quantitation was 1.0 ng/mL (2.03 nM) with a linear calibration range from 1.0 to 1000 ng/mL. The mean intrarun accuracy was 94.8 to 113% (precision, ≤6.2% coefficient of variation [CV]), and the mean interrun accuracy was 94.4 to 103.0% (precision, ≤8.6% CV). […] The AUC0-168hr and […] group was not statistically significant at the 0.05 level and was therefore omitted from the final model. An overall slope was estimated across all groups.

[3] = po, 2 mg, single oral dose 2 mg, suspension
[4] = po, 10 mg, single oral dose 10 mg, suspension
[5] = po, 30 mg, single oral dose 30 mg, suspension
[6] = po, 100 mg, single oral dose 100 mg, suspension
[7] = po, 200 mg, single oral dose 200 mg, suspension
[8] = po, 400 mg, single oral dose 400 mg, suspension
[9] = po, 400 mg, single oral dose 400 mg, tablet
[10] = po, 800 mg, single oral dose 800 mg, tablet
[11] = po, 1200 mg, single oral dose 1,200 mg, tablet
[12] = 100 mg tablet once weekly for 3 weeks, n=6
[13] = 200 mg tablet once weekly for 3 weeks, n=5/6
[14] = 400 mg tablet once weekly for 3 weeks, n=6
[15] = 100 mg, 100 mg tablet once weekly, wk 1, n=6
[16] = 100 mg, 100 mg tablet once weekly, wk 3, n=6
[17] = 200 mg, 200 mg tablet once weekly, wk 1, n=5/6
[18] = 200 mg, 200 mg tablet once weekly, wk 3, n=5
[19] = 400 mg, 400 mg tablet once weekly, wk 1, n=6
[20] = 400 mg, 400 mg tablet once weekly, wk 3, n=6

## N#Cc1cc(Cl)cc(Oc2c(C(F)(F)F)ncn(Cc3cc(C(F)(F)F)c(=O)[nH]n3)c2=O)c1 [MK-8507]
HIV-1
  IC50: 0.148 µg/mL
  PK target concentration for C168hr (6 × IC50): 300 nM
[1]; oral, tablet, range across doses, read-out: median Tmax
  Tmax: 4 to 7 h
[1]; [3]
  AUC(0-inf): 3.82 µM·h
  AUC(0-t): 2.94 µM·h
  half-life: 3.45 days
  concentration at 168 h: 10 nM
[1]; po, 2 mg, single oral dose 2 mg, suspension, n=6, read-out: Tmax (median [min, max])
  Tmax: 2 h
[1]; [4]
  AUC(0-t): 11.9 µM·h
  half-life: 3.42 days
  concentration at 168 h: 30 nM
[1]; po, 10 mg, single oral dose 10 mg, suspension, n=6, read-out: Tmax (median [min, max])
  Tmax: 2 h
[1]; [5]
  AUC(0-inf): 52 µM·h
  half-life: 3.24 days
  Cmax: 0.79 µM
[1]; [6]
  AUC(0-inf): 175 µM·h
  AUC(0-t): 139 µM·h
  half-life: 3.16 days
  concentration at 168 h: 300 nM
  Cmax: 2.58 µM
[1]; [7]
  AUC(0-inf): 374 µM·h
  half-life: 3.48 days
  concentration at 168 h: 680 nM
  Cmax: 5.4 µM
[1]; po, 200 mg, single oral dose 200 mg, suspension, n=6, read-out: Tmax (median [min, max])
  Tmax: 2.02 h
[1]; [8]
  AUC(0-inf): 770 µM·h
  AUC(0-t): 619 µM·h
  half-life: 2.88 days
[1]; po, 400 mg, single oral dose 400 mg, suspension, n=6, read-out: Tmax (median [min, max])
  Tmax: 4 h
[1]; [9]
  AUC(0-inf): 710 µM·h
  AUC(0-t): 606 µM·h
  half-life: 2.43 days
  concentration at 168 h: 1280 nM
  Cmax: 9.09 µM
[1]; po, 400 mg, single oral dose 400 mg, tablet, n=6, read-out: Tmax (median [min, max])
  Tmax: 7 h
[1]; [10]
  AUC(0-inf): 1230 µM·h
  AUC(0-t): 989 µM·h
  half-life: 2.95 days
  concentration at 168 h: 2100 nM
  Cmax: 15.4 µM
[1]; po, 800 mg, single oral dose 800 mg, tablet, n=6, read-out: Tmax (median [min, max])
  Tmax: 4 h
[1]; [11]
  AUC(0-inf): 1920 µM·h
  AUC(0-t): 1570 µM·h
  half-life: 2.86 days
  concentration at 168 h: 3590 nM
  Cmax: 23.6 µM
[1]; po, 1200 mg, single oral dose 1,200 mg, tablet, n=6, read-out: Tmax (median [min, max])
  Tmax: 5 h
[2]; [12]
  GMR (accumulation ratio, wk 3/wk 1 [90% CI]) of AUC0–168: 1.18 (1.12–1.25)
  GMR (accumulation ratio, wk 3/wk 1 [90% CI]) of C168hr: 1.14 (0.87–1.50)
  GMR (accumulation ratio, wk 3/wk 1 [90% CI]) of Cmax: 1.12 (0.96–1.30)
[2]; [13]
  GMR (accumulation ratio, wk 3/wk 1 [90% CI]) of AUC0–168: 1.23 (1.16–1.31)
  GMR (accumulation ratio, wk 3/wk 1 [90% CI]) of C168hr: 1.22 (0.90–1.65)
  GMR (accumulation ratio, wk 3/wk 1 [90% CI]) of Cmax: 1.15 (0.98–1.36)
[2]; [14]
  GMR (accumulation ratio, wk 3/wk 1 [90% CI]) of AUC0–168: 1.23 (1.16–1.31)
  GMR (accumulation ratio, wk 3/wk 1 [90% CI]) of C168hr: 1.21 (0.92–1.59)
  GMR (accumulation ratio, wk 3/wk 1 [90% CI]) of Cmax: 1.06 (0.91–1.23)
[2]; QW over 3 weeks, 100-mg, 200-mg, 400-mg doses
  accumulation with multiple dosing: minimal accumulation; also recorded: modest accumulation
[2]; QW over 3 weeks, 100-mg, 200-mg, 400-mg doses, range
  accumulation GMR (day 36, day 22), C168hr: 1.14 to 1.22
[2]; [15]
  AUC(0-t): 157 µM·h
  concentration at 168 h: 320 nM
  Cmax: 2.94 µM
[2]; 100 mg, 100 mg tablet once weekly, wk 1, n=6, read-out: Tmax (median [min, max])
  Tmax: 3 h
[2]; 100 mg, 100 mg tablet once weekly, wk 2, n=6
  concentration at 168 h: 390 nM
[2]; [16]
  AUC(0-t): 185 µM·h
  concentration at 168 h: 370 nM
  Cmax: 3.29 µM
[2]; 100 mg, 100 mg tablet once weekly, wk 3, n=6, read-out: Apparent terminal t½ (geometric mean [%GVC]) (converted)
  half-life: 2.78 days
[2]; 100 mg, 100 mg tablet once weekly, wk 3, n=6, read-out: Tmax (median [min, max])
  Tmax: 3.03 h
[2]; [17]
  AUC(0-t): 285 µM·h
  concentration at 168 h: 590 nM
  Cmax: 4.87 µM
[2]; 200 mg, 200 mg tablet once weekly, wk 1, n=5/6, read-out: Tmax (median [min, max])
  Tmax: 5 h
[2]; 200 mg, 200 mg tablet once weekly, wk 2, n=5
  concentration at 168 h: 700 nM
[2]; [18]
  AUC(0-t): 352 µM·h
  concentration at 168 h: 720 nM
  Cmax: 5.61 µM
[2]; 200 mg, 200 mg tablet once weekly, wk 3, n=5, read-out: Apparent terminal t½ (geometric mean [%GVC]) (converted)
  half-life: 3.09 days
[2]; 200 mg, 200 mg tablet once weekly, wk 3, n=5, read-out: Tmax (median [min, max])
  Tmax: 4.01 h
[2]; [19]
  AUC(0-t): 563 µM·h
  concentration at 168 h: 1230 nM
  Cmax: 10.8 µM
[2]; 400 mg, 400 mg tablet once weekly, wk 1, n=6, read-out: Tmax (median [min, max])
  Tmax: 4 h
[2]; 400 mg, 400 mg tablet once weekly, wk 2, n=6
  concentration at 168 h: 1110 nM
[2]; [20]
  AUC(0-t): 694 µM·h
  concentration at 168 h: 1490 nM
  Cmax: 11.5 µM
[2]; 400 mg, 400 mg tablet once weekly, wk 3, n=6, read-out: Apparent terminal t½ (geometric mean [%GVC]) (converted)
  half-life: 3.05 days
[2]; 400 mg, 400 mg tablet once weekly, wk 3, n=6, read-out: Tmax (median [min, max])
  Tmax: 4 h
[2]; 400 mg, 100, 200, 400 mg tablet once weekly, range across doses, read-out: geometric mean apparent t1/2
  half-life: 2.79 to 3.08 days
[2]; 400 mg, 100, 200, 400 mg tablet once weekly, range across doses, read-out: median time of peak concentration postdose
  Tmax: 3 to 5 h
